The values that follow come from patent US8992998B2, “MAPK inhibition by H2” (priority 2010, dated 2015).

Data set [1] deals with LPS-induced endotoxin shock. The experiment in a line: LPS-induced endotoxin shock in mice: survival rate and plasma/serum TNF-α and IL-6. The class given is in vivo, C57BL/6j mice.
The subject of another data set is BMMs. The experiment in a line: Proinflammatory cytokine production (ELISA) from stimulated bone marrow derived macrophages. The class given is cell-based, mouse. The note with it: for IL-6 production induced by LPS (Example 5): FIG. 5C. For orientation: In an ELISA, binding on a coated surface is turned into a signal by an enzyme label.
Data set [2] relates to ROS (hydroxyl radical, superoxide, H2O2) in BMMs. The experiment in a line: Intracellular ROS production in LPS-stimulated BMMs (HPF / CM-H2DCFDA fluorescence). The class given is cell-based, mouse. The procedure:
Invitrogen) detects superoxide, H2O2, and hydroxyl radical. […] After preculture, the cells were exposed to LPS ([…]) for 30 minutes and immediately HPF fluorescence or fluorophore DCF were detected at an excitation wavelength of 485 nm and an emission wavelength of 530 nm with a fluorometric imaging plate reader, Synergy HT (Biotech Instruments, Winooski, Vt.).

For data set [3], the system named is MAPKs (ERK, p38, and JNK). The experiment in a line: Immunoblotting of MAPKs phosphorylation in stimulated BMMs. The class given is cell-based, mouse. Background: Immunoblotting shows a protein as a band on a membrane.
The subject of data set [4] is MAPKs (ERK, p38, and JNK). The experiment in a line: Phosphorylated MAPKs levels in peritoneal cells isolated from treated mice. The class given is in vivo, mouse. The note with it: i.p., 45 minutes prior to isolation. The procedure: After 45 minutes, peritoneal suspensions were obtained by peritoneal lavage as previously described. […] The peritoneal cells were immediately lysed in lysis buffer and performed Immunoblotting as described above.

In another data set the test system is DCs. The note with it: LPS stimulation.
Data set [5] deals with MAPKs (ERK, p38, and JNK). The note with it: non-stimulated BMMs, time dependent.
For the next data set, the system named is MKP-1. As to conditions: BMMs, within 20 minutes.
The target in another data set is p38b (Homo sapiens, UniProt Q15759). The note with it: cited from earlier work.
p38b, sequence (Q15759 whole entry, species assumed): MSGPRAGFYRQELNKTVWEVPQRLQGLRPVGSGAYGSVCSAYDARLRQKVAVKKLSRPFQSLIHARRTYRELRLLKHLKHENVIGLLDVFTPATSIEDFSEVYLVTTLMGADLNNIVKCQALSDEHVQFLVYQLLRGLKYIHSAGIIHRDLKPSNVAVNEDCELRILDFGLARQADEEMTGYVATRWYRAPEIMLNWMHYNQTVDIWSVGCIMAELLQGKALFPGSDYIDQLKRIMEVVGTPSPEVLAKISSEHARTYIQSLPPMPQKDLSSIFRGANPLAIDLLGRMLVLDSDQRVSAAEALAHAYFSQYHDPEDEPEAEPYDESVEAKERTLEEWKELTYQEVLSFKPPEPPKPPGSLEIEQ
In another data set the target is T1, p38gamma (Homo sapiens, UniProt P53778).
T1 sequence (P53778 1-367): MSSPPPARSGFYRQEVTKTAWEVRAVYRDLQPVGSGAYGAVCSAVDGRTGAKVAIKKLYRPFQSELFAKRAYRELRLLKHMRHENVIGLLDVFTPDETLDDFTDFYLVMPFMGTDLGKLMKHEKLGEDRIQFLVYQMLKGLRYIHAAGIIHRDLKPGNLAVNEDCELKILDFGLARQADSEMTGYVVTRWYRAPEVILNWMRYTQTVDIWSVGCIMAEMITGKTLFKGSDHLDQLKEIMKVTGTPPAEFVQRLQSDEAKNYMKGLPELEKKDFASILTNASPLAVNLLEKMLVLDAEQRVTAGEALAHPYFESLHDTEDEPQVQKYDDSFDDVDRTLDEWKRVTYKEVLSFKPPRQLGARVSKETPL
As to conditions: cited from earlier work.

The target of a further data set is T2, p38delta (Homo sapiens, UniProt O15264).
T2 sequence (O15264 1-365): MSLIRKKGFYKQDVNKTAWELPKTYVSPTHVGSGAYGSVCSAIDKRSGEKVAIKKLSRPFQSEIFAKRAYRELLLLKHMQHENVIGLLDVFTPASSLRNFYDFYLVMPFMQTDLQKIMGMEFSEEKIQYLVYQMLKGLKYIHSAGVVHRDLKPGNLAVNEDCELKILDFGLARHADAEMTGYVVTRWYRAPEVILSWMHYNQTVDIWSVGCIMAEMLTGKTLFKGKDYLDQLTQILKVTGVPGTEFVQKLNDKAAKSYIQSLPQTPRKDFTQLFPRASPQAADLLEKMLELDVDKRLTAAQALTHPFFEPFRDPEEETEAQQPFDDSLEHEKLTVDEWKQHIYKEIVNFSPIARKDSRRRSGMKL
The note with it: cited from earlier work.

Where [6] appears, read: lethal dose of LPS, treatment i.p., plasma 4 hour after LPS.

Molecule `[HH]` [H2, molecular hydrogen] came in with a survival rate in [1] (mouse, in vivo) of 90%. Also, the “protection from lethal endotoxin shock” value in data set [1] (mouse, in vivo, po) is “prevented the mice from lethal endotoxin shock”. For the same molecule, in data set [1] (oral administration), the “IL-6 production in serum” value was “down-regulation” and the “TNF-a production in serum” value is listed as “down-regulation”. For the same molecule, in the data set on BMMs (LPS stimulation), the IL-6 production result is given as “suppressed”, the IL-12p40 production entry is recorded as “suppressed” and the TNF-α production result is “suppressed”. In the data set on BMMs, the “IL-6 production induced by LPS (Example 5)” value is on record as “down-regulated”, the “IL-6 production induced by PGN” value was “down-regulated”, the “IL-6 production induced by poly(I:C)” value was “down-regulated” and the “TNF-α production induced by poly(I:C)” value was “suppressed”. In addition, in [2], the “LPS-mediated induction of fluorescence from DCF (superoxide, H2O2, or hydroxyl radical)” value is given as “not affected” and the “LPS-mediated induction of hydroxyl radical (HPF)” value is recorded as “suppressed”. For the same molecule, in [3] (LPS, ERK, p38 and JNK), the “phosphorylation level of MAPKs induced by LPS” value is recorded as “obviously decreased”. Besides, the “level of phosphorylated ERK, LPS-induced” value in [3] (LPS, FIG. 5E) was “decreased”. In data set [3], the “PGN-induced phosphorylation of ERK and p38” value is listed as “blocked”; the “poly(I:C)-induced MAPKs phosphorylation” value is listed as “attenuated”. Further, the “phosphorylation of MAPKs in peritoneal cells” value in [4] is “decreased”. In the data set on DCs, the IL-6 production entry was “suppressed”, the IL-12p40 production result is on record as “suppressed” and the TNF-α production entry is on record as “suppressed”. Besides, in data set [5], the “basal levels of phosphorylated ERK, p38, and JNK” value is “decreased”. The “expression of MKP-1 protein” value in the data set with MKP-1 is recorded as “up-regulated”. Moreover, the “H2 concentration at saturation” value (PBS or culture medium, 25° C.) turned out to be 780 mM. In addition, under “saturated H2 in water”, the pH is 7.6 and the “redox potential (ORP level)” value is listed as −511 mV.

For the molecule `C[S+]([O-])c1ccc(-c2nc(-c3ccncc3)c(-c3ccc(F)cc3)[nH]2)cc1` (stereo not drawn) [SB203580], the sensitivity to inhibition entry is given as “sensitive” at p38b, “unaffected” at p38gamma and “unaffected” on p38delta.

As for `CC(=O)N[C@@H](CS)C(=O)O` [NAC, N-acetyl-L-cysteine, reference compound], in data set [1] (setting [6]), the “serum IL-6 production” value is reported as “significantly suppressed” and the “serum TNF-α production” value is listed as “significantly suppressed”. The molecule also gave a survival rate in data set [1] (mouse, in vivo) of 20%. Moreover, in data set [1] (mouse, in vivo, ip), the survival rate was determined as 70%. Besides, in the data set with BMMs, the “IL-6 production induced by LPS (Example 5)” value is listed as “still inhibited”, the “IL-6 production induced by PGN” value was “did not inhibit”, the “IL-6 production induced by poly(I:C)” value is recorded as “did not inhibit” and the “TNF-α production induced by poly(I:C)” value was “not”. In [2], the “LPS-mediated induction of fluorescence from DCF (superoxide, H2O2, or hydroxyl radical)” value was “remarkably inhibited” and the “LPS-mediated induction of hydroxyl radical (HPF)” value was “suppressed”. Further, in [3], the “PGN-induced phosphorylation of ERK and p38” value was “inhibited little or no”; the “poly(I:C)-induced MAPKs phosphorylation” value is given as “not”. In addition, in data set [4], the “phosphorylation of MAPKs in peritoneal cells” value was “did not reduce”.
